The results in this text go back to patent US20080188549A1, “Composition for Preventing and/or Treating Metabolic Syndrome and Insulin Resistance Syndrome” (Kaneka Corporation, priority 2005, published 2008).

SMILES strings stand for the structures.

The target of this assay is T1, PPARγ (Mus musculus, UniProt P37238).
T1 construct: GAL4 (yeast transcription factor, amino acids 1 to 147); expressed in transfected cells; host or cells: CV-1 cells (African green monkey kidney)
T1 sequence (P37238 174-475 isoform P37238-2): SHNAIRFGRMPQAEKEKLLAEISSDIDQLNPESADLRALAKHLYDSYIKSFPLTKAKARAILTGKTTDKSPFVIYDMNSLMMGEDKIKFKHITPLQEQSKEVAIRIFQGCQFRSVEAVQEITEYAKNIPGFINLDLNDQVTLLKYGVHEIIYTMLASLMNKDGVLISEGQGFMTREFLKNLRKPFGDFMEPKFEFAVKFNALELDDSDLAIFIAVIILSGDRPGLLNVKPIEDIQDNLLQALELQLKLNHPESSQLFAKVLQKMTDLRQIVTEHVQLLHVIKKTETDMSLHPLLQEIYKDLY
The assay can be described thus: PPARγ ligand activity measurement (GAL4-mPPARγ chimera luciferase reporter assay in CV-1 cells). The class given is cell-based. The conditions noted are these: for Specific activity (PPARγ ligand activity relative to no-treatment control): CV-1 cells, 24 hours, n=4, 1.5 or above = having PPARγ ligand activity; for PPARγ ligand activity comparison with troglitazone: compared with troglitazone at 0.5 μM, compounds at the concentrations of Table 2. On the procedure: CV-1 cells (male African green monkey kidney-derived cultured cells) were distributed into wells of a 96-well culture plate (6×10^3 cells/well) and cultured under conditions of 37° C. and 5% CO2 for 24 hours. The medium used was DMEM (Dulbecco's modified Eagle medium; GIBCO) containing 10% FBS (fetal bovine serum), 10 ml/L of penicillin-streptomycin solution (5,000 IU/ml and 5,000 μg/ml, respectively; GIBCO) and 37 mg/L of ascorbic acid (Wako Pure Chemical Industries). After rinsing with OPTI-MEM (GIBCO), the cells were transfected with pM-mPPARγ and 4×UASg-luc using Lipofectamine Plus (GIBCO). […] Each sample in the assay group was dissolved in dimethyl sulfoxide (DMSO), and DMSO was used in the no-treatment control group. The solution or DMSO was added to the medium at a level of 1/1000. After washing the cells with Ca- and Mg-containing phosphate buffered saline (PBS^+), LucLite (Packard) was added to each well, and the luciferase-due luminescence intensity was measured using Packard's TopCount microplate scintillation/luminescence counter. Using pM (plasmid deprived of the PPARγ ligand binding site gene) in lieu of pM-mPPARγ, measurements in a control group were carried out in the same manner as in the above assay group. For each sample, the ratio in mean luminescence intensity (n=4) between the assay group and control group (assay group/control group ratio) was calculated, and the specific activity relative to the no-treatment control group was regarded as the PPARγ ligand activity of the sample. When the specific activity was 1.5 or above, the sample was evaluated as having PPARγ ligand activity.
In general terms: Reporter assays use an easily measured gene product as a stand-in for the process of interest.

For the compound `CC(C)=CCc1cc([C@@H]2CC(=O)c3ccc4c(c3O2)C=CC(C)(C)O4)ccc1O` [Compound 2, shinflavanone], the “PPARγ ligand activity comparison with troglitazone” value (shortened to “PPARγ ligand activity comparison”) is given as “stronger in PPARγ ligand activity as compared with troglitazone”. Further, the “Specific activity (PPARγ ligand activity relative to no-treatment control)” value (10 μg/ml) is given as 3.62.
For the compound `COc1ccc(C2(O)COc3c(ccc4c3C=CC(C)(C)O4)C2=O)c(O)c1` (stereo not drawn) [Compound 3, 3,2′-dihydroxy-4′-methoxy-6″,6″-dimethylpyrano[2″,3″:7,8] isoflavanone], the “PPARγ ligand activity comparison” value is reported as “stronger in PPARγ ligand activity as compared with troglitazone”. The “Specific activity (PPARγ ligand activity relative to no-treatment control)” value (20 μg/ml) amounted to 1.90.
`COc1c(/C=C/C(=O)c2cc(O)c(O)c(CC=C(C)C)c2)ccc(O)c1O` [Compound 1, 3,4,3′,4′-tetrahydroxy-2-methoxy-5′-γ,γ-dimethylallylchalcone]: the “PPARγ ligand activity comparison” value is on record as “stronger in PPARγ ligand activity as compared with troglitazone”. Further, the “Specific activity (PPARγ ligand activity relative to no-treatment control)” value (10 μg/ml) turned out to be 3.58.
